Here are results for two sequences from article PMC3601065 (PLoS ONE, 2013).

In one data set the target is HLA-A*0201 (Homo sapiens, UniProt P04439, D140Y/D185E/D98H/E176V/E277Q/G131W/G231S/I119V/I121R/I166T/I218V/L300P/L318F/N151K/N90K/P208A/P217A/Q86G/Q94H/R138H/R169H/T345S). Nature of the data set: biochemical. The data set is classed as binding.

Where no end group is shown, it is not given here.

In turn, VLSEWLPVT [VT9] yielded an IC50 on HLA-A*0201 of 15 nM. Also, in the data set on T2 target cells, the “cytotoxicity of peptide-specific CD8^+ T cells” value is reported as “highly cytotoxic”.
In turn, ILDAHSLYL [IL9] registered an IC50 against HLA-A*0201 of 1.3 nM. In the data set on T2 target cells, the “cytotoxicity of peptide-specific CD8^+ T cells” value is on record as “highly cytotoxic”.
